The target of assay [1] is T1, KRas G12C (Homo sapiens, UniProt P01116, G12C).
T1 construct: Biotinylated KRas (corresponding to amino acids 1-169, produced at Accelegan Inc.); biotin (biotinylated); purchased Accelegan Inc
The assay can be described thus: KRas binding assay, TR-FRET displacement of Cy5 labelled tracer. The conditions noted are these: 60-minute incubation at room temperature, 1% DMSO, pH 7.5. As to the method: (§1) This Example illustrates that exemplary compounds of the present invention bind to KRas and are capable of displacing a labeled tracer ligand occupying the KRas binding site. KRas^WT, KRas^G12A, KRas^G12C, KRas^G12D, KRas^G12R, KRas^G12S, KRas^G12V, KRas^G13D, or KRas^Q61H was used in the assay.
(§2) The ability of a compound to bind to KRas was measured using a TR-FRET displacement assay. Biotinylated KRas (corresponding to amino acids 1-169, produced at Accelegan Inc.) was incubated with custom made Cy5 labelled tracer, terbium streptavidin (Cisbio Inc.) and compound (1% DMSO final) in buffer (50 mM HEPES, pH 7.5, 5 mM MgCl2, 0.005% Tween-20 and 1 mM DTT). After a 60-minute incubation at room temperature, the reaction was measured using a BMG LABTECH CLARIO star Plus via TR-FRET. […] The POC values were fit to a 4-parameter IC50 equation and the IC50 value reported.

Assay [2] concerns the target T2, KRas G12S (Homo sapiens, UniProt P01116, G12S).
T2 construct: Biotinylated KRas (corresponding to amino acids 1-169, produced at Accelegan Inc.); biotin (biotinylated); purchased Accelegan Inc
The assay is described as above. The conditions noted are these: 60-minute incubation at room temperature, 1% DMSO, pH 7.5. As to the method:
as §1, §2

Assay [3] concerns the target T3, KRas WT (Homo sapiens, UniProt P01116).
T3 construct: Biotinylated KRas (corresponding to amino acids 1-169, produced at Accelegan Inc.); biotin (biotinylated); purchased Accelegan Inc
The assay is described as above. Conditions: 60-minute incubation at room temperature, 1% DMSO, pH 7.5. As to the method:
as §1, §2

Assay [4] deals with T4, KRas-mediated phosphorylation of ERK in A549 cells (Homo sapiens, UniProt P01116, G12S).
T4 construct: pERK HTRF read-out
The assay can be described thus: Inhibition of KRas-mediated phosphorylation of ERK (HTRF), A549 cells. The class given is cell-based. Conditions: HTRF pERK, 3 h incubation.

The values below come from US20260356856A1, “KRAS G12S AND G12C INHIBITORS” (MIRATI THERAPEUTICS, INC., priority 2023, published 2026).

T3 sequence (P01116 1-169 isoform P01116-2): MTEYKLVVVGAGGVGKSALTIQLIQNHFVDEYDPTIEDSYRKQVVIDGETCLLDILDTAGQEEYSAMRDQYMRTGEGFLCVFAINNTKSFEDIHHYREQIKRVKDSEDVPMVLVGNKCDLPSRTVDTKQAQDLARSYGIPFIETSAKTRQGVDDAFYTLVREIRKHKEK
T1 sequence (P01116 1-169 isoform P01116-2 G12C): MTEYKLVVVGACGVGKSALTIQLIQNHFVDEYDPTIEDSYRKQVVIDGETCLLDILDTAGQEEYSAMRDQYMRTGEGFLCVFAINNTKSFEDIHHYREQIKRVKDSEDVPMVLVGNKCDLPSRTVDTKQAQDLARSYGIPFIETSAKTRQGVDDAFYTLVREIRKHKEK
T2 sequence (P01116 1-169 isoform P01116-2 G12S): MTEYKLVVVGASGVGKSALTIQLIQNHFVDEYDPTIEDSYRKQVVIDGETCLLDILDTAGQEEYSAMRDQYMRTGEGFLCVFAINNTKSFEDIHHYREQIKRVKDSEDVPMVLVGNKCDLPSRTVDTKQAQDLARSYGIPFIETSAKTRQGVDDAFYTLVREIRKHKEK
T4 sequence (P01116 1-188 isoform P01116-2 G12S): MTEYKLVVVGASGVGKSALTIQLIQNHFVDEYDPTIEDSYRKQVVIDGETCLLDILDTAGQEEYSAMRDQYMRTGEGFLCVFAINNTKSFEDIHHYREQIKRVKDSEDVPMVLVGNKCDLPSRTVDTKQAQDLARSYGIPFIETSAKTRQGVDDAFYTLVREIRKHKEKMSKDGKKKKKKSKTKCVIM

On to `O=C(Oc1cccc(F)c1F)C1CCN(c2nc(OCC34CCCN3CCC4)nc3c(F)c(-c4cccc5cccc(F)c45)ncc23)CC1` [Example 34, 2,3-difluorophenyl 1-(8-fluoro-7-(8-fluoronaphthalen-1-yl)-2-((tetrahydro-1H-pyrrolizin-7a(5H)-yl)methoxy)pyrido[4,3-d]pyrimidin-4-yl)piperidine-4-carboxylate], for which the IC50 was 7890 nM in assay [1], over 100000 nM in assay [2] and over 100000 nM in assay [3].

For `O=C(Oc1ccccc1F)C1CCN(c2nc(OCC34CCCN3CCC4)nc3c(F)c(-c4cccc5cccc(F)c45)ncc23)CC1` [Example 35, 2-fluorophenyl 1-(8-fluoro-7-(8-fluoronaphthalen-1-yl)-2-((tetrahydro-1H-pyrrolizin-7a(5H)-yl)methoxy)pyrido[4,3-d]pyrimidin-4-yl)piperidine-4-carboxylate], the IC50 is 321 nM in assay [1], 47500 nM in assay [2] and 92600 nM in assay [3].

For `O=C(Oc1ccc(F)c(F)c1)[C@H]1CCN(c2nc(OCC34CCCN3CCC4)nc3c(F)c(-c4cccc5cccc(F)c45)ncc23)C[C@H]1O` [Example 36, 3,4-difluorophenyl (3S,4S)-1-(8-fluoro-7-(8-fluoronaphthalen-1-yl)-2-((tetrahydro-1H-pyrrolizin-7a(5H)-yl)methoxy)pyrido[4,3-d]pyrimidin-4-yl)-3-hydroxypiperidine-4-carboxylate], the IC50 in assay [1] is 18900 nM; in assay [2], over 100000 nM; in assay [3], over 100000 nM.

With `O=C(Oc1ccc(F)c(F)c1)[C@@H]1CCN(c2nc(OCC34CCCN3CCC4)nc3c(F)c(-c4cccc5cccc(F)c45)ncc23)C[C@@H]1O` [Example 37, 3,4-difluorophenyl (3R,4R)-1-(8-fluoro-7-(8-fluoronaphthalen-1-yl)-2-((tetrahydro-1H-pyrrolizin-7a(5H)-yl)methoxy)pyrido[4,3-d]pyrimidin-4-yl)-3-hydroxypiperidine-4-carboxylate], the figures for the IC50 in assay [1], in assay [2] and in assay [3] were 7290 nM, 20400 nM and 20400 nM, respectively.

For `O=CC1CCN(c2nc(OCC34CCCN3CCC4)nc3c(F)c(-c4cccc5cccc(F)c45)ncc23)CC1` [Example 38, 1-(8-fluoro-7-(8-fluoronaphthalen-1-yl)-2-((tetrahydro-1H-pyrrolizin-7a(5H)-yl)methoxy)pyrido[4,3-d]pyrimidin-4-yl)piperidine-4-carbaldehyde], the IC50 in assay [1] came to 761 nM; in assay [2], 27900 nM; in assay [3], 19300 nM.

`COC(=O)C1CCN(c2nc(OCC34CCCN3CCC4)nc3c(F)c(-c4cccc5cccc(F)c45)ncc23)CC1` [Example 41, methyl 1-(8-fluoro-7-(8-fluoronaphthalen-1-yl)-2-((tetrahydro-1H-pyrrolizin-7a(5H)-yl)methoxy)pyrido[4,3-d]pyrimidin-4-yl)piperidine-4-carboxylate]: the IC50 in assay [1] was determined as 18200 nM; in assay [2] it was 17600 nM; in assay [3], 12300 nM.

On to `O=C(Oc1ccc(C(F)(F)F)cc1)C1CCN(c2nc(OCC34CCCN3CCC4)nc3c(F)c(-c4cccc5cccc(F)c45)ncc23)CC1` [Example 42, 4-(trifluoromethyl)phenyl 1-(8-fluoro-7-(8-fluoronaphthalen-1-yl)-2-((tetrahydro-1H-pyrrolizin-7a(5H)-yl)methoxy)pyrido[4,3-d]pyrimidin-4-yl)piperidine-4-carboxylate], for which the IC50 was 768 nM in assay [1], 68100 nM in assay [2] and over 100000 nM in assay [3].

With `O=C(Oc1ccc(F)c(F)c1)C1CCN(c2nc(OCC34CCCN3CCC4)nc3c(F)c(-c4cccc5cccc(F)c45)ncc23)CC1` [Example 43, 3,4-difluorophenyl 1-(8-fluoro-7-(8-fluoronaphthalen-1-yl)-2-((tetrahydro-1H-pyrrolizin-7a(5H)-yl)methoxy)pyrido[4,3-d]pyrimidin-4-yl)piperidine-4-carboxylate], the IC50 was 424 nM in assay [1], 42100 nM in assay [2] and over 100000 nM in assay [3].

On to `O=C(Oc1ccccc1)C1CCN(c2nc(OCC34CCCN3CCC4)nc3c(F)c(-c4cccc5cccc(F)c45)ncc23)CC1` [Example 44, phenyl 1-(8-fluoro-7-(8-fluoronaphthalen-1-yl)-2-((tetrahydro-1H-pyrrolizin-7a(5H)-yl)methoxy)pyrido[4,3-d]pyrimidin-4-yl)piperidine-4-carboxylate], for which the IC50 in assay [1] is 1770 nM; in assay [2], 81100 nM; in assay [3], over 100000 nM.

Regarding `COC(=O)[C@H]1CCN(c2nc(OCC34CCCN3CCC4)nc3c(F)c(-c4cccc5cccc(F)c45)ncc23)C[C@@H]1O` [Example 45, methyl (3R,4S)-1-(8-fluoro-7-(8-fluoronaphthalen-1-yl)-2-((tetrahydro-1H-pyrrolizin-7a(5H)-yl)methoxy)pyrido[4,3-d]pyrimidin-4-yl)-3-hydroxypiperidine-4-carboxylate], the IC50 in assay [1] was over 100000 nM; in assay [2], over 100000 nM; in assay [3], 65700 nM.

Take `COC(=O)[C@H]1CCN(c2nc(OCC34CCCN3CCC4)nc3c(F)c(-c4cccc5cccc(F)c45)ncc23)C[C@H]1O` [Example 46, methyl (3S,4S)-1-(8-fluoro-7-(8-fluoronaphthalen-1-yl)-2-((tetrahydro-1H-pyrrolizin-7a(5H)-yl)methoxy)pyrido[4,3-d]pyrimidin-4-yl)-3-hydroxypiperidine-4-carboxylate]: the IC50 in assay [1], in assay [2] and in assay [3] was over 100000 nM in each case.

With `COC(=O)[C@@H]1CCN(c2nc(OCC34CCCN3CCC4)nc3c(F)c(-c4cccc5cccc(F)c45)ncc23)C[C@@H]1O` [Example 47, methyl (3R,4R)-1-(8-fluoro-7-(8-fluoronaphthalen-1-yl)-2-((tetrahydro-1H-pyrrolizin-7a(5H)-yl)methoxy)pyrido[4,3-d]pyrimidin-4-yl)-3-hydroxypiperidine-4-carboxylate], the IC50 in assay [1], in assay [2] and in assay [3] was over 100000 nM in each case.

Regarding `O=C(Oc1ccccc1)C1CCCN(c2nc(OCC34CCCN3CCC4)nc3c(F)c(-c4cccc5cccc(F)c45)ncc23)C1` (centres unmarked) [Example 51, phenyl 1-(8-fluoro-7-(8-fluoronaphthalen-1-yl)-2-((tetrahydro-1H-pyrrolizin-7a(5H)-yl)methoxy)pyrido[4,3-d]pyrimidin-4-yl)piperidine-3-carboxylate], the IC50 in assay [1] was found to be 30300 nM; in assay [2], 56500 nM; in assay [3] it was 25400 nM.

Take `O=C(Oc1ccccc1F)C1CCCN(c2nc(OCC34CCCN3CCC4)nc3c(F)c(-c4cccc5cccc(F)c45)ncc23)C1` (centres unmarked) [Example 52, 2-fluorophenyl 1-(8-fluoro-7-(8-fluoronaphthalen-1-yl)-2-((tetrahydro-1H-pyrrolizin-7a(5H)-yl)methoxy)pyrido[4,3-d]pyrimidin-4-yl)piperidine-3-carboxylate]: the IC50 in assay [1] was 6810 nM; in assay [2] it was 27100 nM; in assay [3], 20200 nM.

On to `CCc1c(F)ccc2cc(O)cc(-c3ncc4c(N5CCN(C(=O)n6ccc(C)n6)C(C(F)F)C5)nc(OC[C@@]56CCCN5C[C@H](F)C6)nc4c3F)c12` (stereo partly drawn) [Example 125, (2-(difluoromethyl)-4-(7-(8-ethyl-7-fluoro-3-hydroxynaphthalen-1-yl)-8-fluoro-2-(((2R,7aS)-2-fluorotetrahydro-1H-pyrrolizin-7a(5H)-yl)methoxy)pyrido[4,3-d]pyrimidin-4-yl)piperazin-1-yl)(3-methyl-1H-pyrazol-1-yl)methanone], for which the IC50 in assay [1] amounted to 96 nM; in assay [2], 168 nM; in assay [3], 84 nM; in assay [4] it was 6810 nM.

Take `CCc1c(F)ccc2cc(O)cc(-c3ncc4c(N5CCN(C(=O)n6ccc(C)n6)C(CC#N)C5)nc(OC[C@@]56CCCN5C[C@H](F)C6)nc4c3F)c12` (stereo partly drawn) [Example 126, 2-(4-(7-(8-ethyl-7-fluoro-3-hydroxynaphthalen-1-yl)-8-fluoro-2-(((2R,7aS)-2-fluorotetrahydro-1H-pyrrolizin-7a(5H)-yl)methoxy)pyrido[4,3-d]pyrimidin-4-yl)-1-(3-methyl-1H-pyrazole-1-carbonyl)piperazin-2-yl) acetonitrile]: the IC50 in assay [1] was 84 nM; in assay [2] it was 88 nM; in assay [3], 8 nM; in assay [4], 9800 nM.

`CCc1c(F)ccc2cc(O)cc(-c3ncc4c(N(C)CCCC(=O)NC(C)=O)nc(OC[C@@]56CCCN5C[C@H](F)C6)nc4c3F)c12` [Example 325, N-acetyl-4-((7-(8-ethyl-7-fluoro-3-hydroxynaphthalen-1-yl)-8-fluoro-2-(((2R,7aS)-2-fluorotetrahydro-1H-pyrrolizin-7a(5H)-yl)methoxy)pyrido[4,3-d]pyrimidin-4-yl)(methyl)amino)butanamide]: the IC50 in assay [1] amounted to 12 nM; in assay [2], 14 nM; in assay [3], 23 nM.
